Results: US12171759B1, “Methods and uses for treating anhedonia” (Xenon Pharmaceuticals Inc., priority 2021, dated 2024)
Several values for one entry are separate records, joined by “and”; a condition that tells them apart may be missing. Equal entries are not always repeated. Entries after “also recorded” stand apart in the source; their conditions may differ.

Test system: male Long Evans rats
Test: Progressive ratio (PR) schedule of reinforcement for food (Progressive Ratio Test, PRT)
Type: in vivo, rat
Design: Sess. Duration: unit not given here
Details: AVG
Protocol: The objective of this study was to test the effect of Compound A (1, 3, or 8 mg/kg, p.o.) on motivation as measured by rats responding for food under a progressive ratio (PR) schedule of reinforcement. Test measures included the total number of lever presses, and number of rewards (food pellets) acquired (break point).
The progressive ratio (PR) task is a cross species translational approach used as measure of motivational performance including as a measure of anhedonia (see, e.g., Hodos W., Science 1961, 134:943-944; Spierling et al., Physiol Behav. 2017, 177:99-106; Radke et al., Pharmacol Biochem Behav. 2015, 129:51-55; Hauser et al., Hormones and Behavior 2009, 56:364-375; Merali et al., Psychopharmacology 2003, 165:413-418; Marchese et al., Int J Neuropsychopharmacology 2013, 16:1611-1621; Karlsson et al., Hippocampus 2018, 28 (7): 512-522: Strauss et al., Schizophr Res. 2016, 170 (1): 198-204; and Gunthorpe et al., Epilepsia 2012, 53 (3): 412-424). In rodent species, the basic test design involves training subjects to lever press for a food reward (45 mg Bioserve pellets) under a schedule in which the number of responses required to achieve a pellet increased for successive reinforcers. The present study used a progression ratio derived from the equation ratio=[5×e^(0.2×reinforcer #)−5], and was as follows: 2, 4, 6, 9, 12, 15, 20, 25, 32, 40, 50, 62, 77, 95, 118, 145, 178, etc. Rats were therefore required to lever press a progressively increasing number of times to gain each successive reward, until reaching a break point, i.e., not meeting the schedule requirement. […] This provided a quantitative measurement of effort the animal would expend for the given reinforcer, which was interpreted as a measure of motivation. Based on the amount of food acquired during a typical test session (e.g., a break point of 10-12, corresponds to 0.45-0.54 g food), responding is limited by the amount of effort the animal is willing to expend for a single food pellet, rather than factors such as satiety.
Rats may be categorized based on differences in PR breakpoint, i.e., “low” and “high” responders. […] Motivational deficits are commonly seen in anhedonia associated with many neuropsychological disorders, such as depression, dementia, and schizophrenia (Lactôt et al., Alzheimer's and Dementia 2017, 13:84-100) and efficacy in treating “low” responder rats is indicative of efficacy in treating more significant or severe anhedonia.
The primary purpose of this proposal was to evaluate the effect of Compound A on motivational performance of Male Long Evans rats under a progressive ratio schedule. A large (N=32) cohort of rats were used and the effect of Compound A was investigated both in all rats, and also a “low” responder subgroup, based on the low tertile (N=11) cohort recorded over 5 days baseline responding prior to study commencement.
Dosage form: Compound A was suspended in 0.5% CMC-Na and 0.1% Tween 80 in purified water and sonicated until fully dissolved. Drug was administered at a volume of 10 mL/kg, orally.
Doses tested: 1, 3, 8 mg/kg.
Pretreatment time: 120 minutes.
Dosage form: D-Amp was suspended in 0.9% saline and sonicated until fully dissolved. Drug was administered at a volume of 1 mL/kg, intraperitoneally.
Pretreatment time: 10 minutes.
Test System: Thirty-two (32) experimentally non-naïve male Long Evans rats were included in the study.
Housing and Management of Test System: Animals were singly housed and maintained on a restricted diet regimen, in which they were fed approximately 18-20 g of standard laboratory chow once per day following the completion of study procedures (between 16:00 h and 18:00 h). Water was available ad-libitum, excluding during training/testing sessions. Animals were maintained on a 12 h/12 h light/dark cycle with all testing conducted during the animals' light cycle. All animal use procedures were performed in accordance with the principles of the Canadian Council on Animal Care (CCAC). […]

[1] = High responder subgroup (N=11), 0.6 mg/kg i.p.
[2] = Low responder subgroup (N=11), 0.6 mg/kg i.p.
[3] = all rats (N = 32), 0.6 mg/kg i.p., 10 min pretreatment
[4] = High responder subgroup (N=11), 1 mg/kg p.o.
[5] = High responder subgroup (N=11), 3 mg/kg p.o.
[6] = High responder subgroup (N=11), 8 mg/kg p.o.
[7] = Low responder subgroup (N=11), 1 mg/kg p.o.
[8] = Low responder subgroup (N=11), 3 mg/kg p.o.
[9] = Low responder subgroup (N=11), 3 mg/kg p.o., listed as Cpmd A
[10] = Low responder subgroup (N=11), 8 mg/kg p.o.
[11] = Low responder subgroup (N=11), 8 mg/kg p.o., listed as Cpmd A
[12] = all rats (N = 32), 1 mg/kg p.o., 120 min pretreatment
[13] = all rats (N = 32), 3 mg/kg p.o., 120 min pretreatment
[14] = all rats (N = 32), 3 mg/kg p.o., 120 min pretreatment, listed as Cpmd A
[15] = all rats (N = 32), 8 mg/kg p.o., 120 min pretreatment
[16] = all rats (N = 32), 8 mg/kg p.o., 120 min pretreatment, listed as Cpmd A

## C[C@H](N)Cc1ccccc1 [D-Amphetamine, reference compound]
[1]
  Rewards (break point): 17.5±0.9 and 17.5
  Sess. Duration: 52.4
[2]
  Rewards (break point): 12.2±1.2 and 12.2
  Sess. Duration: 44.5
[3]
  Lever Press: 893+131 and 893.0
  Rewards (break point): 14.7 ± 0.7 and 14.7
  Sess. Duration: 44.8

## Cc1cc(N2CCc3cc(F)ccc3C2)cc(C)c1NC(=O)CC(C)(C)C [Compound A, N-[4-(6-fluoro-3,4-dihydro-1H-isoquinolin-2-yl)-2,6-dimethylphenyl]-3,3-dimethylbutanamide]
[4]
  Lever Press: 707.5
  Rewards (break point): 14.6
  Sess. Duration: 21.2
[5]
  Lever Press: 623.9
  Rewards (break point): 14.3
  Sess. Duration: 24.3
[6]
  Lever Press: 700.0
  Rewards (break point): 14.6
  Sess. Duration: 20.8
[7]
  Lever Press: 141.5
  Rewards (break point): 8.2
  Sess. Duration: 15.5
[8]
  Lever Press: selectively increase; also recorded: statistical significance
  Rewards (break point): selectively increase; also recorded: statistical significance
  Sess. Duration: 23.2
[9]
  Lever Press: 272.7
  Rewards (break point): 10.7
[10]
  Lever Press: selectively increase; also recorded: statistical significance
  Rewards (break point): selectively increase; also recorded: statistical significance
  Sess. Duration: 22.6
[11]
  Lever Press: 258.0
  Rewards (break point): 10.5
[12]
  Lever Press: 392.4
  Rewards (break point): 11.5
  Sess. Duration: 16.9
[13]
  Lever Press: significant increase; also recorded: significantly increasing; also recorded: statistical significance
  Rewards (break point): significant increase; also recorded: significantly increasing; also recorded: statistical significance
  Sess. Duration: 22.6
[14]
  Lever Press: 439.3
  Rewards (break point): 12.5
[15]
  Lever Press: significant increase; also recorded: significantly increasing; also recorded: statistical significance
  Rewards (break point): significant increase; also recorded: significantly increasing; also recorded: statistical significance
  Sess. Duration: 21.1
[16]
  Lever Press: 479.8
  Rewards (break point): 12.8
